“Also recorded” adds a separate entry of the source. Where a SMILES comes first, the peptide text is derived from it. Bridges are numbered along the chain shown (N, C = ends). [ ]: non-standard residue; d: D form. Tic = O=C(O)[C@@H]1Cc2ccccc2CN1; Pen = CC(C)(S)[C@H](N)C(=O)O; Mpa = O=C(O)CCS
How the values were obtained:
[1] = Parathyroid hormone-induced hypercalcemia in mice; type: in vivo; conditions: parathyroidectomized Swiss-Webster mice, 4 hr peptide infusion, 0.2 mg PTH/kg i.v.; in words
Source text: Parathyroid hormone (PTH) activates osteoclasts, which are involved in bone resorption. Associated with the increased osteoclast activity is an increase in serum calcium. The PTH-induced hypercalcemia assay measures the level of serum calcium, which is an indication of bone resorption in a subject (Fischer et al., Endocrinology 132:1411-1413 (1993), which is incorporated herein by reference).
Swiss-Webster mice, which had been parathyroidectomized two weeks prior to beginning the assay, were obtained from Taconic Lab Animals and Services (Germantown N.Y.). Femoral vein catheters (PE-50 fused with PE10 polyethylene tubing; Becton Dickinson; Parsippany, N.J.) were installed in the mice, flushed and locked with heparinized saline (1:10), sutured to adjacent muscle and internalized within the inguinal space of the incision before closing the incision with wound clips. […]
The experiment was initiated by feeding the mice a calcium-deficient diet overnight, then injecting the mice the following morning with a bolus of 0.2 mg PTH/kg (hPTH 1-34; Bachem; Torrance Calif.), intravenously. […] Various doses of a peptide or vehicle were infused into an animal for 4 hr, then ionized serum calcium again was measured. […] Serum calcium measurements were expressed as the difference between the value 30 min before the PTH pulse and 4 hr after peptide infusion was started. […]

αv β3 receptor = biological target: T1, αv β3 receptor (Homo sapiens, UniProt P05106+P06756); test: αvβ3 competitive ELISA; type: binding; conditions: IC50 in αvβ3 ELISA / JY cells versus αvβ5 and α5β1 ELISAs; in words
T1 construct: The αv β3 receptor was purified from octylglucopyranoside-extracted human placenta; from tissue; host or cells: human placenta
Method: Peptide binding to purified human αv β5 and αv β3, which are VnR's, and to α5 β1 which is a FnR, was determined using competitive ELISA assays as described below.
Peptide binding to purified αv β3 receptor was determined by using a competitive ELISA, in which αv β3 receptor was immobilized and the binding of solubilized VN, in the presence of various concentrations of peptide analogue, was detected using a monoclonal mouse IgG anti-VN antibody and a labelled anti-mouse IgG conjugate.
96 well microtiter plates were coated overnight at RT with 100 μl/well of αv β3 receptor (0.5 μg/ml in 1X TBS, 4 mM octylglucoside, 1 mM CaCl2). The wells were blocked with 200 μl/well of 1% BSA in 1X TBS, 1 mM CaCl2 for at least 30 min. The plates were washed 2× with 1X TBS, 1 mM CaCl2. 50 μl peptide in 1X TBS, 1 mM CaCl2, 0.05% TWEEN 20 (polyoxyethylenesorbitan monolaurate) was added in 10-fold serial dilutions. 50 μl of Vn in the same buffer then was added to each well.
The plates were incubated for 3 hr at RT, then washed 3× with 1X TBS, 0.05% TWEEN 20 (polyoxyethylenesorbitan monolaurate). 100 μl of 8E6 (Telios) diluted to 1:6000 in 1X TBS, 0.05% TWEEN 20 (polyoxyethylenesorbitan monolaurate) was added to the wells and the plates were incubated for 1 hr at RT. Plates were washed 3× with 1X TBS, 0.05% TWEEN 20 (polyoxyethylenesorbitan monolaurate). Affinity purified goat anti-mouse IgG conjugated to horseradish peroxidase (100μl/well; BioRad; Hercules Calif.) was added to each well and incubated for 1 hr at RT. Plates were washed 3× with 1X TBS, 0.05% TWEEN 20 (polyoxyethylenesorbitan monolaurate). 100 μl/well of substrate mixture (10 mg O-phenylenediamine in 25 ml 0.1M citrate-phosphate buffer, pH 5.0, 6 μl 30% H2 O2) was added to the plates and allowed to develop. The development process was stopped by adding 50 μl to 4N H2 SO4 to each well. The plates were read at 490 nm and the data analyzed by four parameter fit.

[2] = system: osteoclasts; αv β3 integrin receptor; test: Series of assays of Example II (summary of potency and selectivity, FIG. 2); conditions: in words
[3] = Half-life of peptide in serum; type: in vivo; conditions: in words
Source text: Increased stability of a disulfide bonded peptide of the invention also can be conferred by incorporating a hydrophobic amino acid residue such as phenylalanine at position X1 or X8 or both X1 and X8 in an RGDNTic (SEQ ID NO: 31) or RGDDV (SEQ ID NO: 1) pharmacophore as disclosed herein. The presence of such a residue can stabilize the disulfide bond against enzymatic degradation (see Bauer et al., Life Sciences 31:1133-1140 (1982)). […] In addition, the half-life of a peptide in a subject can be determined, for example, by high performance liquid chromatography (HPLC) of serum samples collected from the subject at various times following administration of the peptide. One skilled in the art would know how to select appropriate elution buffers for HPLC based on the physico-chemical properties of a particular peptide.

osteoclasts = conditions: in vitro; Sato et al., EP 437,367; cited from earlier work
[4] = in vivo; Fisher et al.; cited from earlier work
αv β3 integrin receptor = conditions: Choi et al. 1994; cited from earlier work

CC(C)[C@@H]1NC(=O)[C@H](CC(=O)O)NC(=O)[C@H](CC(=O)O)NC(=O)CNC(=O)[C@H](CCCNC(=N)N)NC(=O)CCSSC[C@@H](C(N)=O)NC1=O [compound 191] ([Mpa]RGDDVC-NH2; disulfide 1-7)
PTH-induced rise in serum ionized calcium [1]: decreased the PTH-induced rise in serum ionized calcium in a dose responsive manner

CC(=O)N[C@H]1CSSC(C)(C)[C@@H](C(N)=O)NC(=O)[C@@H]2CCCN2C(=O)[C@H](CC(N)=O)NC(=O)[C@H](CC(=O)O)NC(=O)CNC(=O)[C@H](CCCNC(=N)N)NC1=O [compound 228] (Ac-CRGDNP[Pen]-NH2; disulfide 1-7)
receptor selectivity for αv β3 compared to αv β5 and α5 β1 (αv β3 receptor): particularly receptor selective

CC[C@H](C)[C@@H]1NC(=O)[C@@H](NC(=O)CN)C(C)(C)SSC[C@@H](C(=O)N[C@@H](C)C(=O)O)NC(=O)[C@H](CC(C)C)NC(=O)[C@H](CC(=O)O)NC(=O)[C@H](CC(=O)O)NC(=O)CNC(=O)[C@H](CCCNC(=N)N)NC(=O)[C@H](C)NC1=O [compound 448] (H-G[Pen]IARGDDLCA-OH; disulfide 2-10)
receptor selectivity for αv β3 compared to αv β5 and α5 β1 (αv β3 receptor): particularly receptor selective

CC(=O)N[C@H]1CSSC[C@@H](C(N)=O)NC(=O)[C@@H]2Cc3ccccc3CN2C(=O)[C@H](CO)NC(=O)[C@H](CC(=O)O)NC(=O)CNC(=O)[C@H](CCCNC(=N)N)NC1=O [compound 812, Ac-CRGDS(Tic)C--NH2] (Ac-CRGDS[Tic]C-NH2; disulfide 1-7)
potency (active at a relatively low concentration) [2]: particularly potent
activity (FIG. 2) ([2]; minimally essential elements): demonstrate activity

CC(C)[C@@H]1NC(=O)[C@H](CC(=O)O)NC(=O)[C@H](CC(=O)O)NC(=O)CNC(=O)[C@H](CCCNC(=N)N)NC(=O)[C@H](C)NC(=O)[C@H](C)NC(=O)[C@@H](NC(=O)CN)C(C)(C)SSC[C@@H](C(=O)N[C@@H](C)C(N)=O)NC1=O [compound 814] (H-G[Pen]AARGDDVCA-NH2; disulfide 2-10)
receptor selectivity for αv β3 compared to αv β5 and α5 β1 (αv β3 receptor): receptor selective for αv β3; also recorded: particularly receptor selective

CC(=O)N[C@@H]1C(=O)N[C@@H](Cc2ccccc2)C(=O)N[C@@H](C)C(=O)N[C@@H](CCCNC(=N)N)C(=O)NCC(=O)N[C@@H](CC(=O)O)C(=O)N[C@@H](CC(N)=O)C(=O)N2CCC[C@H]2C(=O)N[C@H](C(N)=O)CSSC1(C)C [peptide 214] (Ac-[Pen]FARGDNPC-NH2; disulfide 1-9)
potency (active at a relatively low concentration) [2]: particularly potent

CC(=O)N[C@@H](Cc1ccccc1)C(=O)N[C@H]1CSSC[C@@H](C(N)=O)NC(=O)[C@H](Cc2ccccc2)NC(=O)[C@H]([C@@H](C)O)NC(=O)[C@H](CC(=O)O)NC(=O)CNC(=O)[C@H](CCCNC(=N)N)NC1=O [peptide 220] (Ac-FCRGDTFC-NH2; disulfide 2-8)
half-life in serum [3]: relatively long half-life in serum

Echistatin
inhibition of bone resorption (osteoclasts): inhibits bone resorption in vitro
inhibition of bone resorption [4]: inhibits bone resorption

G(Pen)GRGDSPCA
inhibition of neointimal hyperplasia (αv β3 integrin receptor): can inhibit neointimal hyperplasia

Source: patent US5773412A, “Use of peptides for altering αV β3 -mediated binding” (priority 1995, dated 1998)
